Laboratory results from PubChem BioAssay AID330 (DTP/NCI, 2004).
Where “and” joins values, the source holds several entries; their conditions need not be identical. Equal values may be shown once. Inconclusive results and toxic doses are left out. Rule for the calls: active = survival T/C of 150% or more; inactive = T/C below 125% in these data.

System: P388 leukemia ip, CD2F1 mice, survival T/C
Assay: NCI In Vivo Anticancer Drug Screen. Data for tumor model P388 Leukemia (intraperitoneal) in CD2F1 (CDF1) mice
Conditions: endpoint: median survival time, higher = longer survival
In short: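 Mice carrying the transplanted tumor received test compound or vehicle. Survival was recorded in each group, and the value is the treated-group measurement divided by that of the vehicle-treated control group.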

[1] = dose: 50.0 mg/kg/injection, schedule: Q01DX009 (ip), vehicle: saline with Tween-80
[2] = dose: 50.0 mg/kg/injection, schedule: Q01DX009 (ip), vehicle: saline
[3] = dose: 100.0 mg/kg/injection, schedule: Q01DX009 (ip), vehicle: saline
[4] = dose: 200.0 mg/kg/injection, schedule: Q01DX009 (ip), vehicle: saline
[5] = dose: 60.0 mg/kg/injection, schedule: Q01DX005 (ip), vehicle: Klucel (hydroxypropylcellulose) (HPC)
[6] = dose: 120.0 mg/kg/injection, schedule: Q01DX005 (ip), vehicle: Klucel (hydroxypropylcellulose) (HPC)
[7] = dose: 240.0 mg/kg/injection, schedule: Q01DX005 (ip), vehicle: Klucel (hydroxypropylcellulose) (HPC)
[8] = dose: 50.0 mg/kg/injection, schedule: Q01DX001 (ip), vehicle: Klucel (hydroxypropylcellulose) (HPC)
[9] = dose: 100.0 mg/kg/injection, schedule: Q01DX001 (ip), vehicle: Klucel (hydroxypropylcellulose) (HPC)
[10] = dose: 200.0 mg/kg/injection, schedule: Q01DX009 (ip), vehicle: saline with Tween-80
[11] = dose: 100.0 mg/kg/injection, schedule: Q01DX009 (ip), vehicle: saline with Tween-80

Measured: T/C

C=C(C)C(=O)OC1CC2OC2(C)CC(OC(=O)C(=C)C)C2C(=C)C(=O)OC2/C=C\1C (centres undefined)
inactive: dose: 5.0 mg/kg/injection, schedule: Q01DX009 (ip), vehicle: saline with Tween-80 90 % of control | dose: 10.0 mg/kg/injection, schedule: Q01DX009 (ip), vehicle: saline with Tween-80 90 % of control | dose: 20.0 mg/kg/injection, schedule: Q01DX009 (ip), vehicle: saline with Tween-80 100 % of control | dose: 40.0 mg/kg/injection, schedule: Q01DX009 (ip), vehicle: saline with Tween-80 86 % of control

CSc1ncnc2c1cnn2C1OC(CO)C(O)C1O (centres undefined)
inactive: dose: 6.25 mg/kg/injection, schedule: Q01DX009 (ip), vehicle: saline with Tween-80 104 % of control | dose: 12.5 mg/kg/injection, schedule: Q01DX009 (ip), vehicle: saline with Tween-80 98 % of control | dose: 25.0 mg/kg/injection, schedule: Q01DX009 (ip), vehicle: saline with Tween-80 116 % of control | [1] 100 % of control

CC(C)(C)/C=C/N1CCN=N1
inactive: dose: 12.5 mg/kg/injection, schedule: Q01DX005 (ip), vehicle: saline with Tween-80 100 % of control | dose: 25.0 mg/kg/injection, schedule: Q01DX005 (ip), vehicle: saline with Tween-80 104 % of control | dose: 50.0 mg/kg/injection, schedule: Q01DX005 (ip), vehicle: saline with Tween-80 102 % of control and 109 % of control

O=C(O)C(O)C(Cl)(Cl)Cl (centres undefined)
inactive: dose: 25.0 mg/kg/injection, schedule: Q01DX009 (ip), vehicle: saline 107 % of control | [2] 96 % of control | [3] 88 % of control | [4] 91 % of control

CN1C(=O)C(Cc2cnc[nH]2)NC1=S (centres undefined)
inactive: [5] 101 % of control | [6] 111 % of control | [7] 93 % of control

C#C/C=C/CC1O[C@H](/C=C/C)C/C=C\CC1Cl (some centres undefined)
inactive: dose: 7.8 mg/kg/injection, schedule: Q01DX005 (ip), vehicle: Klucel (hydroxypropylcellulose) (HPC) 94 % of control | dose: 15.62 mg/kg/injection, schedule: Q01DX005 (ip), vehicle: Klucel (hydroxypropylcellulose) (HPC) 99 % of control | dose: 31.25 mg/kg/injection, schedule: Q01DX005 (ip), vehicle: Klucel (hydroxypropylcellulose) (HPC) 96 % of control | dose: 62.5 mg/kg/injection, schedule: Q01DX005 (ip), vehicle: Klucel (hydroxypropylcellulose) (HPC) 88 % of control

CC[C@@H](C)C(=O)O[C@H]1[C@H](O)[C@H]2[C@@H](CN3C[C@@H](C)CC[C@H]3[C@@]2(C)O)[C@@H]2CC34O[C@]5(O)[C@@H](OC(=O)[C@@](C)(O)CC)CC[C@@]3(C)[C@@H]5[C@@H](OC(C)=O)[C@@H](OC(C)=O)[C@H]4[C@@]21O
inactive: dose: 0.1 mg/kg/injection, schedule: Q01DX005 (ip), vehicle: saline 102 % of control | dose: 0.4 mg/kg/injection, schedule: Q01DX005 (ip), vehicle: saline with Tween-80 100 % of control | dose: 25.0 micrograms/kg/injection, schedule: Q01DX005 (ip), vehicle: saline 97 % of control | dose: 50.0 micrograms/kg/injection, schedule: Q01DX005 (ip), vehicle: saline 94 % of control | dose: 100.0 micrograms/kg/injection, schedule: Q01DX005 (ip), vehicle: saline 94 % of control

Cc1c2c(n(C)c1C)C(=O)C=CC2=O
inactive: [8] 100 % of control | [9] 113 % of control

CC(Nc1ccc(Br)cc1[N+](=O)[O-])C(=O)O (centres undefined)
inactive: [1] 110 % of control | [10] 100 % of control

COc1ccc2c(c1)C1(C)c3cc(OC)ccc3OC1(C)O2 (centres undefined)
inactive: dose: 50.0 mg/kg/injection, schedule: Q01DX009 (ip), vehicle: other 103 % of control | dose: 100.0 mg/kg/injection, schedule: Q01DX009 (ip), vehicle: other 95 % of control | dose: 200.0 mg/kg/injection, schedule: Q01DX009 (ip), vehicle: other 103 % of control

Nc1cc2cc([N+](=O)[O-])ccc2oc1=O
inactive: dose: 50.0 mg/kg/injection, schedule: Q01DX005 (ip), vehicle: Klucel + Tween-80 96 % of control | dose: 100.0 mg/kg/injection, schedule: Q01DX005 (ip), vehicle: Klucel + Tween-80 90 % of control | dose: 200.0 mg/kg/injection, schedule: Q01DX005 (ip), vehicle: Klucel + Tween-80 87 % of control

CCCCNc1nc(SC)nc2nc[nH]c12
inactive: dose: 50.0 mg/kg/injection, schedule: Q04DX003 (ip), vehicle: saline with Tween-80 100 % of control | dose: 100.0 mg/kg/injection, schedule: Q04DX003 (ip), vehicle: saline with Tween-80 98 % of control | dose: 200.0 mg/kg/injection, schedule: Q04DX003 (ip), vehicle: saline with Tween-80 96 % of control | dose: 400.0 mg/kg/injection, schedule: Q04DX003 (ip), vehicle: saline with Tween-80 95 % of control

O=C(Nc1ccc(Cl)cc1C(F)(F)F)OCCCc1ccncc1
inactive: [2] 98 % of control | [3] 91 % of control | [4] 91 % of control

O=C(Nc1ccccc1)Oc1cccc(/C=N/S(=O)(=O)c2cccc([N+](=O)[O-])c2)c1
inactive: [1] 93 % of control | [11] 97 % of control | [10] 98 % of control

O=C(O)Cn1cc(I)c(=O)c(I)c1
inactive: [1] 102 % of control | [11] 112 % of control | [3] 101 % of control | [10] 110 % of control | [4] 105 % of control | dose: 400.0 mg/kg/injection, schedule: Q01DX009 (ip), vehicle: saline with Tween-80 112 % of control | dose: 400.0 mg/kg/injection, schedule: Q01DX009 (ip), vehicle: saline 102 % of control | dose: 600.0 mg/kg/injection, schedule: Q01DX009 (ip), vehicle: saline 101 % of control

CCOC(=O)n1c(=O)oc2c(Br)cc(Br)cc21
inactive: dose: 50.0 mg/kg/injection, schedule: Q04DX002 (ip), vehicle: Klucel (hydroxypropylcellulose) (HPC) 96 % of control | dose: 100.0 mg/kg/injection, schedule: Q04DX002 (ip), vehicle: Klucel (hydroxypropylcellulose) (HPC) 99 % of control | dose: 200.0 mg/kg/injection, schedule: Q04DX002 (ip), vehicle: Klucel (hydroxypropylcellulose) (HPC) 93 % of control

COc1cccc2c1C(=O)c1c(O)c(COC3CC(N)C(O)C(C)O3)cc(O)c1C2=O (centres undefined)
inactive: dose: 1.56 mg/kg/injection, schedule: Q04DX003 (ip), vehicle: water 96 % of control | dose: 3.13 mg/kg/injection, schedule: Q04DX003 (ip), vehicle: water 96 % of control | dose: 6.25 mg/kg/injection, schedule: Q04DX003 (ip), vehicle: water 104 % of control | dose: 12.5 mg/kg/injection, schedule: Q04DX003 (ip), vehicle: water 101 % of control | dose: 25.0 mg/kg/injection, schedule: Q04DX003 (ip), vehicle: water 95 % of control

CC(C)CC1N=C(NN=C(CCl)CCl)SP1(=O)NCCCCCCNP1(=O)SC(NN=C(CCl)CCl)=NC1CC(C)C (centres undefined)
inactive: [5] 100 % of control | [6] 103 % of control | [7] 102 % of control

[Cl][Mn][Cl].[NH-]NP(=S)(N[NH-])Oc1ccccc1.[NH-]NP(=S)(N[NH-])Oc1ccccc1
inactive: dose: 12.5 mg/kg/injection, schedule: Q01DX005 (ip), vehicle: saline 99 % of control | dose: 25.0 mg/kg/injection, schedule: Q01DX005 (ip), vehicle: saline 100 % of control | dose: 50.0 mg/kg/injection, schedule: Q01DX005 (ip), vehicle: saline 108 % of control

OCC(O)C(O)C(O)C(O)c1nnc2n[nH]c(=S)n2n1 (centres undefined)
inactive: dose: 25.0 mg/kg/injection, schedule: Q01DX001 (ip), vehicle: Klucel (hydroxypropylcellulose) (HPC) 100 % of control | [8] 98 % of control | [9] 100 % of control

Cn1c(=O)c2c(nc(CF)n2C)n(C)c1=O
inactive: dose: 100.0 mg/kg/injection, schedule: Q01DX001 (ip), vehicle: saline 92 % of control | dose: 200.0 mg/kg/injection, schedule: Q01DX001 (ip), vehicle: saline 96 % of control
